Reference: article PMC7873226, “Molecular mechanism and structural basis of small-molecule modulation of the gating of acid-sensing ion channel 1” (Communications Biology, 2021)
Numbering of substitutions follows the chain as printed. Where two headings read alike, the source gives them in different places.

Legend:
[1] = target: T1, rat ASIC1a (Rattus norvegicus, UniProt P55926); experiment: Whole-cell patch clamp: inhibition of acid-induced current in CHO cells stably expressing rat ASIC1a; type: cell-based
T1 construct: expressed in transfected cells
T1 sequence (P55926 1-526): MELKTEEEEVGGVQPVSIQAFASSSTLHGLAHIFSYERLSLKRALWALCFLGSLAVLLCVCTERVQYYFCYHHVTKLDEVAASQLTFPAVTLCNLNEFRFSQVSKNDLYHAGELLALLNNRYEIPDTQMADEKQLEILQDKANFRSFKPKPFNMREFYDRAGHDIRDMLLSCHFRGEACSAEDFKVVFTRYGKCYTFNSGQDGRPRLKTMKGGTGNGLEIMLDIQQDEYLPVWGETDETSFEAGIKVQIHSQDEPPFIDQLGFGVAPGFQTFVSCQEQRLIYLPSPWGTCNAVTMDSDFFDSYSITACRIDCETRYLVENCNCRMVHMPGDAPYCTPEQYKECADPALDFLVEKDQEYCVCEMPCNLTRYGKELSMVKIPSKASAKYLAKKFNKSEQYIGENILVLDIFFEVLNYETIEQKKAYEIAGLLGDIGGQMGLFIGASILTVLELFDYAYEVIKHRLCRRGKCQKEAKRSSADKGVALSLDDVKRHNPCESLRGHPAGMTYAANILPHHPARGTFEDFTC
Experimental: (§1) Chinese Hamster Ovary (CHO) cells stably expressing rat ASIC1a were cultured in Ham’s F12, supplemented with 10% FBS, 1% penicillin–streptomycin and 500 µg/mL G418 and incubated at 37 °C with 5% CO2. Transient transfections of rASIC1a and cASIC1 wild-type or mutant channels in CHO cells were performed with Lipofectamine 3000 (Thermo Fisher Scientific) according to the manufacturer’s recommendations. The green fluorescent protein (GFP) cDNA (at 1/10 the amount of channel cDNA) was co-transfected with channel cDNA to aid the identification of transfected cells under the microscope in patch clamp experiments. All cDNAs were sequence verified.
Cells were freshly dissociated with CellStripper (Corning) and dispersed in a chamber on the stage of an inverted microscope. Upon formation of the whole-cell conformation, the cell was lifted from the bottom of the chamber and placed at the tip of a tubing perfusing an extracellular solution containing (in mM): 149 NaCl, 2 CaCl2, 4 KCl, 1 MgCl2, 5 glucose, 10 HEPES, pH 7.4, 310 mOsm/L. Extracellular solutions at more basic or acidic pHs were made by titrating the above pH 7.4 solution with NaOH or HCl (5 mM MES was added to solutions at pH 6.0 and lower). Pipette electrodes were filled with an intracellular solution containing (in mM): 135 KCl, 4 MgATP, 0.3 Na2GTP, 10 EGTA, and 20 HEPES, pH 7.2, 290 mOsm/L.
(§2) All recordings were performed at room temperature using an Axopatch 200B amplifier and pClamp 11 software (Molecular Devices). Currents were measured by whole-cell patch clamp, digitized at 10 kHz and lowpass filtered at 2 kHz. Series resistance was 75% compensated. Responses were elicited by rapid perfusion of acidic solutions using the SF-77B Fast-Step Perfusion device (Warner Instruments) for 40 ms once every 30 s (unless indicated otherwise) and recorded till steady state was reached. The holding potential was 0 mV unless indicated otherwise.
Baseline values (i.e., current amplitudes at the conditioning pH) were subtracted to obtain responses evoked by the test pH. Responses were normalized for each cell before averaging (see figure legends for more detail on normalization for each type of experiment). Concentration–response data were fitted to a logistic function of the form: R = (A1–A2)/(1 + (C/C0)^h)+A2, where R is the normalized response, C is either pH or compound concentration, C0 is the pH/concentration at which half-maximal response occurs (pH50 or IC50), h is the Hill coefficient, and A1 and A2 are constants. Kinetic parameters were obtained by fitting the data with either a single or double exponential function. Fitted data are shown as solid, dashed, or dotted curves.

[2] = target: T2, rASIC1a F98A (Rattus norvegicus, UniProt P55926, F98A); experiment: Inhibition of pH 6.0-induced current of mutant channel F98A; type: cell-based
T2 construct: expressed in transfected cells; host or cells: CHO cells, transient transfection (GFP cDNA co-transfected separately)
T2 sequence (P55926 1-526 F98A): T1 sequence (P55926 1-526) with F98A
Experimental: as §1
Cells were freshly dissociated with CellStripper (Corning) and dispersed in a chamber on the stage of an inverted microscope. […]
as §2, with “Series resistance was 75% compensated.” left out, “The holding potential was 0 mV unless indicated otherwise.” left out

[3] = CHO, pH 6, pH6.0, 10 nM, read-out: current inhibition, mean (source data Fig. 1e)
[4] = CHO, pH 6, pH6.0, 30 nM, read-out: current inhibition, mean (source data Fig. 1e)
[5] = CHO, pH 6, pH6.0, 100 nM, read-out: current inhibition, mean (source data Fig. 1e)
[6] = CHO, pH 6, pH6.0, 300 nM, read-out: current inhibition, mean (source data Fig. 1e)
[7] = CHO, pH 6, pH6.0, 1000 nM, read-out: current inhibition, mean (source data Fig. 1e)
[8] = CHO, pH 7.1, pH7.1, 3 nM, read-out: current inhibition, mean (source data Fig. 1e)
[9] = CHO, pH 7.1, pH7.1, 10 nM, read-out: current inhibition, mean (source data Fig. 1e)
[10] = CHO, pH 7.1, pH7.1, 30 nM, read-out: current inhibition, mean (source data Fig. 1e)
[11] = CHO, pH 7.1, pH7.1, 100 nM, read-out: current inhibition, mean (source data Fig. 1e)
[12] = test pH 6.0, holding pH 8.2, WT

Row | inhibition at 0.01 µM [1, 3] [%] | inhibition at 0.03 µM [1, 4] [%] | inhibition at 0.1 µM [1, 5] [%] | inhibition at 0.3 µM [1, 6] [%] | inhibition at 1 µM [1, 7] [%] | inhibition at 0.003 µM [1, 8] [%] | inhibition at 0.01 µM [1, 9] [%] | inhibition at 0.03 µM [1, 10] [%] | inhibition at 0.1 µM [1, 11] [%] | max %inhibition ([1]; test pH 6.0, holding pH 8.2) [%] | IC50 [1, 12] [nM] | IC50 ([1]; test pH 7.1, holding pH 8.2) [nM] | max %inhibition ([1]; test pH 7.1, holding pH 8.2) [%] | IC50 [2] [nM] | SMILES | further results
1 | 23.5 | 45.7 | 66.3 | 78.3 | 80.7 | 45.1 | 74.6 | 94.4 | 99.1 | 83.1 ± 1.2 | 24.9 ± 1.3 | 3.6 ± 0.2 | 100 | 726 ± 356 | COc1ccc(Oc2ccc(-c3nc4cc(C(=N)N)ccc4[nH]3)cc2)cc1OC [JNJ-799760] | –
2 | 17.9 | 38.3 | 61.3 | 68.9 | 71.7 | 42.7 | 78.1 | 96.5 | 99.8 | 76.5 ± 2.2 | 28.9 ± 3.6 | 3.8 ± 0.2 | 100 | 626 ± 11 | Cc1cc(N2CC(Oc3cc(F)c4c(N)n[nH]c4c3)C2)c(F)cn1 [JNJ-67869386] | inhibition at 0.01 µM ([1]; CHO, pH 5, pH5.0, 10 nM, read-out: current inhibition, mean (source data Fig. 1e)): 8%; inhibition at 0.03 µM ([1]; CHO, pH 5, pH5.0, 30 nM, read-out: current inhibition, mean (source data Fig. 1e)): 15.3%; inhibition at 0.1 µM ([1]; CHO, pH 5, pH5.0, 100 nM, read-out: current inhibition, mean (source data Fig. 1e)): 20.5%; inhibition at 0.3 µM ([1]; CHO, pH 5, pH5.0, 300 nM, read-out: current inhibition, mean (source data Fig. 1e)): 25.2%; inhibition at 1 µM ([1]; CHO, pH 5, pH5.0, 1000 nM, read-out: current inhibition, mean (source data Fig. 1e)): 28.4%; inhibition at 3 µM ([1]; CHO, pH 6, pH6.0, 3000 nM, read-out: current inhibition, mean (source data Fig. 1e)): 79.2%; inhibition at 0.01 µM ([1]; CHO, pH 6.8, 10 nM, 0 mV, read-out: inhibition of pH 6.8-induced current): 75.6 ± 6.9%; inhibition at 0.01 µM ([1]; CHO, pH 6.8, 10 nM, −80 mV, read-out: inhibition of pH 6.8-induced current): 78.2 ± 5%; inhibition at 0.001 µM ([1]; CHO, pH 6.8, pH6.8, 1 nM, read-out: current inhibition, mean (source data Fig. 1e)): 15.3%; inhibition at 0.003 µM ([1]; CHO, pH 6.8, pH6.8, 3 nM, read-out: current inhibition, mean (source data Fig. 1e)): 33.9%; inhibition at 0.01 µM ([1]; CHO, pH 6.8, pH6.8, 10 nM, read-out: current inhibition, mean (source data Fig. 1e)): 62.8%; inhibition at 0.03 µM ([1]; CHO, pH 6.8, pH6.8, 30 nM, read-out: current inhibition, mean (source data Fig. 1e)): 89.8%; inhibition at 0.1 µM ([1]; CHO, pH 6.8, pH6.8, 100 nM, read-out: current inhibition, mean (source data Fig. 1e)): 97.6%; IC50 ([1]; test pH 5.0, holding pH 8.2): 34.4 ± 7.6 nM; max %inhibition ([1]; test pH 5.0, holding pH 8.2): 30.4 ± 1.8%; IC50 ([1]; test pH 6.8, holding pH 8.2): 5.5 ± 0.4 nM; max %inhibition ([1]; test pH 6.8, holding pH 8.2): 100%
